Data from patent US9783537B2, “3-(4-ethylnylphenyl) pyridopyrimidinone compounds and process for preparation thereof useful as potential anticancer agents” (Council of Scientific & Industrial Research, priority 2013, dated 2017).
Where two headings read alike, the source gives them in different places.

Columns and labels:
HL-60(TB) = experiment: SRB 48 h growth assay, Leukemia HL-60(TB); type: cell-based, human
A549/ATCC = experiment: SRB 48 h growth assay, Non-small Cell Lung A549/ATCC; type: cell-based, human
HOP-62 = experiment: SRB 48 h growth assay, Non-small Cell Lung HOP-62; type: cell-based, human; details: HOP-62, Non-small Cell Lung; for GI50: Homo sapiens
HOP-92 = experiment: SRB 48 h growth assay, Non-small Cell Lung HOP-92; type: cell-based, human; details: HOP-92, Non-small Cell Lung
NCI-H460 = experiment: SRB 48 h growth assay, Non-small Cell Lung NCI-H460; type: cell-based, human; details: for GI50: Homo sapiens
NCI-H522 = experiment: SRB 48 h growth assay, Non-small Cell Lung NCI-H522; type: cell-based, human
SF-268 = experiment: SRB 48 h growth assay, CNS SF-268; type: cell-based, human; details: SF-268, CNS
SF-539 = experiment: SRB 48 h growth assay, CNS SF-539; type: cell-based, human; details: SF-539, CNS; for GI50: Homo sapiens
SNB-19 = experiment: SRB 48 h growth assay, CNS SNB-19; type: cell-based, human; details: Homo sapiens, SNB-19, CNS
SNB-75 = experiment: SRB 48 h growth assay, CNS SNB-75; type: cell-based, human; details: SNB-75, CNS; for GI50: Homo sapiens
SK-MEL-28 = experiment: SRB 48 h growth assay, Melanoma SK-MEL-28; type: cell-based, human; details: SK-MEL-28, Melanoma; for GI50: Homo sapiens
UACC-257 = experiment: SRB 48 h growth assay, Melanoma UACC-257; type: cell-based, human; details: UACC-257, Melanoma
IGROV1 = experiment: SRB 48 h growth assay, Ovarian IGROV1; type: cell-based, human
OVCAR-4 = experiment: SRB 48 h growth assay, Ovarian OVCAR-4; type: cell-based, human; details: OVCAR-4, Ovarian
NCI/ADR-RES = experiment: SRB 48 h growth assay, Ovarian NCI/ADR-RES; type: cell-based, human
SK-OV-3 = experiment: SRB 48 h growth assay, Ovarian SK-OV-3; type: cell-based, human; details: SK-OV-3, Ovarian
A498 = experiment: SRB 48 h growth assay, Renal A498; type: cell-based, human; details: for GI50: Homo sapiens
ACHN = experiment: SRB 48 h growth assay, Renal ACHN; type: cell-based, human; details: for GI50: Homo sapiens
RXF393 = experiment: SRB 48 h growth assay, Renal RXF393; type: cell-based, human
SN12C = experiment: SRB 48 h growth assay, Renal SN12C; type: cell-based, human
TK-10 = experiment: SRB 48 h growth assay, Renal TK-10; type: cell-based, human; details: TK-10, Renal; for GI50: Homo sapiens
PC-3 = experiment: SRB 48 h growth assay, Prostate PC-3; type: cell-based, human; details: PC-3, Prostate
MDA-MB-231/ATCC = experiment: SRB 48 h growth assay, Breast MDA-MB-231/ATCC; type: cell-based, human
[1] = in vitro anticancer activity, non-small cell lung panel; type: cell-based; details: Homo sapiens; nine non-small cell lung cancer cell lines, exposure at least 48 h; read-out: GI50, range over panel
[2] = tested on: seven ovarian cancer cell lines (IGROV1, OVCAR-3, OVCAR-4, OVCAR-5, OVCAR-8, NCI/ADR-RES and SK-OV-3); experiment: in vitro anticancer activity, ovarian panel; type: cell-based; details: Homo sapiens, exposure at least 48 h, read-out: GI50, range over panel
[3] = tested on: six breast cancer cell line (MCF-7, MDA-MB-231/ATCC, HS 578T, TD-47D, MDA-MB-468 and BT-549); experiment: in vitro anticancer activity, breast panel; type: cell-based; details: Homo sapiens; six breast cancer cell lines, exposure at least 48 h; read-out: GI50, range over panel
[4] = Homo sapiens, read-out: Growth Inhibition GI50
[5] = Homo sapiens, read-out: Log10 GI50 (converted)
[6] = Homo sapiens, read-out: Log10 LC50 (converted)
[7] = read-out: Growth Inhibition GI50
[8] = read-out: Log10 GI50 (converted)

SMILES: C#Cc1ccc(-n2c(/C=C/c3ccc4ccccc4n3)nc3ncccc3c2=O)cc1 [4t, (E)-3-(4-Ethynylphenyl)-2-(2-(quinolin-2-yl)vinyl)pyrido[2,3-d]pyrimidin-4(3H)-one]
- Log10 TGI50 (HL-60(TB)): −6.07
- GI50 (HL-60(TB); [4]): 290 nM
- GI50 (HL-60(TB); [5]): 295 nM
- CC50 (HL-60(TB); [6]): > 100000 nM
- Log10 TGI50 (A549/ATCC): −5.74
- GI50 (A549/ATCC; [4]): 350 nM
- GI50 (A549/ATCC; [5]): 355 nM
- CC50 (A549/ATCC; [6]): > 100000 nM
- Log10 TGI50 (HOP-62): −5.72
- GI50 (HOP-62; [7]): 460 nM
- GI50 (HOP-62; [8]): 468 nM
- Log10 TGI50 (HOP-92): −5.01
- GI50 (HOP-92; [4]): 180 nM
- GI50 (HOP-92; [5]): 186 nM
- CC50 (HOP-92; [6]): > 100000 nM
- Log10 TGI50 (NCI-H460): −6.03
- GI50 (NCI-H460; [7]): 290 nM
- GI50 (NCI-H460; [8]): 302 nM
- Log10 TGI50 (NCI-H522): −6.10
- GI50 (NCI-H522; [4]): 270 nM
- GI50 (NCI-H522; [5]): 269 nM
- CC50 (NCI-H522; [6]): 4900 nM
- GI50 (SF-268; [4]): 380 nM
- GI50 (SF-268; [5]): 389 nM
- CC50 (SF-268; [6]): > 100000 nM
- Log10 TGI50 (SF-268): −5.74
- GI50 (SF-539; [7]): 200 nM
- GI50 (SF-539; [8]): 204 nM
- Log10 TGI50 (SF-539): −6.29
- GI50 (SNB-19; [7]): 720 nM
- GI50 (SNB-19; [8]): 724 nM
- CC50 (SNB-19; read-out: Log10 LC50 (converted)): > 100000 nM
- GI50 (SNB-75; [7]): 330 nM
- GI50 (SNB-75; [8]): 339 nM
- Log10 TGI50 (SNB-75): −5.85
- GI50 (SK-MEL-28; [7]): 1050 nM
- GI50 (SK-MEL-28; [8]): 1050 nM
- Log10 TGI50 (SK-MEL-28): −5.51
- GI50 (UACC-257; [4]): 430 nM
- GI50 (UACC-257; [5]): 437 nM
- CC50 (UACC-257; [6]): 8710 nM
- Log10 TGI50 (UACC-257): −5.66
- Log10 TGI50 (IGROV1): −5.87
- GI50 (IGROV1; Homo sapiens, IGROV-1, read-out: Growth Inhibition GI50): 400 nM
- GI50 (IGROV1; Homo sapiens, IGROV-1, read-out: Log10 GI50 (converted)): 398 nM
- CC50 (IGROV1; Homo sapiens, IGROV-1, read-out: Log10 LC50 (converted)): 5370 nM
- GI50 (OVCAR-4; [4]): 330 nM
- GI50 (OVCAR-4; [5]): 339 nM
- CC50 (OVCAR-4; [6]): > 100000 nM
- Log10 TGI50 (OVCAR-4): −5.46
- Log10 TGI50 (NCI/ADR-RES): −5.75
- GI50 (NCI/ADR-RES; [4]): 380 nM
- GI50 (NCI/ADR-RES; [5]): 380 nM
- CC50 (NCI/ADR-RES; [6]): > 100000 nM
- GI50 (SK-OV-3; [4]): 320 nM
- GI50 (SK-OV-3; [5]): 324 nM
- CC50 (SK-OV-3; [6]): > 100000 nM
- Log10 TGI50 (SK-OV-3): −6.03
- Log10 TGI50 (A498): −6.14
- GI50 (A498; [7]): 220 nM
- GI50 (A498; [8]): 229 nM
- Log10 TGI50 (ACHN): −5.89
- GI50 (ACHN; [7]): 320 nM
- GI50 (ACHN; [8]): 324 nM
- Log10 TGI50 (RXF393): −6.07
- GI50 (RXF393; Homo sapiens, RXF 393, read-out: Growth Inhibition GI50): 250 nM
- GI50 (RXF393; Homo sapiens, RXF 393, read-out: Log10 GI50 (converted)): 257 nM
- CC50 (RXF393; Homo sapiens, RXF 393, read-out: Log10 LC50 (converted)): 5010 nM
- Log10 TGI50 (SN12C): −5.67
- GI50 (SN12C; [4]): 390 nM
- GI50 (SN12C; [5]): 389 nM
- CC50 (SN12C; [6]): > 100000 nM
- GI50 (TK-10; [7]): 430 nM
- GI50 (TK-10; [8]): 437 nM
- Log10 TGI50 (TK-10): −5.82
- GI50 (PC-3; [4]): 340 nM
- GI50 (PC-3; [5]): 339 nM
- CC50 (PC-3; [6]): > 100000 nM
- Log10 TGI50 (PC-3): −5.76
- Log10 TGI50 (MDA-MB-231/ATCC): −5.93
- GI50 (MDA-MB-231/ATCC; [4]): 330 nM
- GI50 (MDA-MB-231/ATCC; [5]): 331 nM
- CC50 (MDA-MB-231/ATCC; [6]): > 100000 nM
- GI50 [1]: 1800 to 5660 nM
- GI50 [2]: 2410 to 32300 nM
- GI50 [3]: 2310 to 11400 nM
